What was measured:
[1] = biological target: T1, dopamine-β-hydroxylase (DBH) (Bos taurus, UniProt P15101); assay: DBH inhibition kinetics: conversion of tyramine to octopamine, HPLC with fluorometric quantitation; assay type: biochemical
T1 sequence (P15101 1-610): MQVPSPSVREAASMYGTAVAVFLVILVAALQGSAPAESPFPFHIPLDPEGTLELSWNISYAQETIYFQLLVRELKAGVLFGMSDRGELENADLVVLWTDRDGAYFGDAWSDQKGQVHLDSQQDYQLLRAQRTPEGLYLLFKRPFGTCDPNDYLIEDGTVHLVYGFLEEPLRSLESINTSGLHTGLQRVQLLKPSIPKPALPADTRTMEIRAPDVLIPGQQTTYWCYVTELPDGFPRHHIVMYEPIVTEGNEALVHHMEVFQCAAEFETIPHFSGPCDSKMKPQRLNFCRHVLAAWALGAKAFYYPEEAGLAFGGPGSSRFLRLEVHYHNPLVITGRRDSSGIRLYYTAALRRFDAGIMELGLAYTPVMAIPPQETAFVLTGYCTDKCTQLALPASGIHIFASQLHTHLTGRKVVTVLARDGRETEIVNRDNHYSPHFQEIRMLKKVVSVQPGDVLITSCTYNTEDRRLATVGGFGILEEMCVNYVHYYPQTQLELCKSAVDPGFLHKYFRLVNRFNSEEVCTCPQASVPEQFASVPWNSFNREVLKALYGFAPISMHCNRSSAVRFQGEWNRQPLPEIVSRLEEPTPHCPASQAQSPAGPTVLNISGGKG
From the text: The DBH inhibitory properties of the compounds of this invention can also readily be determined in vitro by standard and well known procedures for assaying the conversion of tyramine to octopamine in the presence of DBH, such as the procedure set forth by Feilchenfeld, N. B., Richter, H. W. and Waddell, W. H. in "Time-Resolved Assay of Dopamine Beta Hydroxylase Activity Utilizing High-Pressure Liquid Chromatography", Analyt. Biochem., 122, 124-128 (1982). Determination of the kinetics of DBH inhibition is exemplified by a procedure where the enzyme-assisted conversion of tyramine to octopamine is determined by incubating varying concentrations of test compound with constant concentrations of substrate, enzyme (DBH), molecular oxygen, an electron donor such as ascorbate and the necessary cofactors for the enzyme at optimal temperature and pH. After incubation, the product is separated out by high-performance liquid chromatography and quantitated fluorometrically, from which an inhibition constant (ki) can readily be calculated.

[2] = biological target: T1, dopamine-β-hydroxylase (DBH); assay: Time-dependent DBH inhibitory activity in vitro (oxygen uptake, tyramine as substrate); assay type: biochemical
Method: Since DBH is a major enzyme in the synthetic pathway of norepinephrine (NE), the presence of a DBH inhibitor would act to decrease the amount of NE produced, and thereby have an antihypertensive effect. The DBH inhibitory properties of the compounds of this invention can readily be determined by standard and well-known procedures. […] The test compound is added at the desired concentration, and the system is incubated. Aliquots are taken at different time intervals and DBH activity is measured using tyramine as the substrate. The reaction is followed by measuring oxygen uptake using a polarographic electrode and an oxygen monitor by the method of S. May, et al., J. Biol. Chem., 256, 2258 (1981).
t 1/2: time required for 50% log activity remaining

[3] = system: spontaneously hypertensive rats; assay: Antihypertensive activity in vivo: continuous recording of arterial blood pressure in unanesthetized spontaneously hypertensive rats; set-up: Max Change MBP: unit not given here; settings: for % Lowering MBP / Max Change MBP: dosed as tosylate salt, MBP = mean blood pressure
Method: The ability of the compounds of this invention to lower blood pressure can be determined in vivo by using standard and well-known procedures such as those employed in the continuous recording of arterial blood pressure in conscious animals. For instance, test compounds are administered intraperitoneally (ip) to unanesthetized, spontaneously hypertensive rats and the arterial blood pressure is monitored continuously. In tests utilizing the above described procedure, the antihypertensive effects of the test compounds are readily apparent as indicated by the degree of lowering of mean blood pressure (MBP) noted in Table II.
*Dose was administered as mg/kg tosylate salt.

Compound	Activity in the time-dependent DBH inhibition assay (in words) [2]	% Lowering MBP ([3]; 100 mg/kg ip)	Max Change MBP ([3]; 100 mg/kg ip)	% Lowering MBP ([3]; 200 mg/kg ip)	Max Change MBP ([3]; 200 mg/kg ip)	other results
NCCC1SCCS1 [1,3-Dithiolane-2-ethanamine]	–	–	–	–	–	DBH inhibitory activity (in words) ([1]; judged from ki): potent activity as a DBH inhibitor; Ki ([1]; tyramine to octopamine conversion, read-out: ki (inhibition constant), DBH): 11 µM
NC/C=C1/CCCS1 [(Z)-2-(Dihydro-2(3H)-thienylidene)ethanamine]	not active	28.6%	-54 +/-21	–	–	In vivo antihypertensive activity (in words) ([3]; ip, spontaneously hypertensive rats): active as an in vivo antihypertensive agent
NCC=C1SCCS1 [Compound 1 (Table I), 2-(1,3-dithiolan-2-ylidene)ethanamine]	most active compound of the compounds tested	–	–	21.7%	-39 +/-13	–
CC(N)C=C1SCCS1 (stereo not shown) [Compound 3 (Table I), 1-(1,3-dithiolan-2-ylidene)-2-propanamine]	–	–	–	17.3%	-30 +/-13	–
NC/C=C1\CCCS1 [Compound 4 (Table I), (E)-2-(dihydro-2(3H)-thienylidene)ethanamine]	–	30.0%	-55 +/-22	–	–	–

Reference: patent US4970228A, “Novel aminoalkyl-substituted heterocyclic sulfur compounds” (Merrell Dow Pharmaceuticals, priority 1989, dated 1990)
